Several values for one entry are separate records, joined by “and”; a condition that tells them apart may be missing. Equal values may be shown once.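 Dose response: 5 concentrations. Exposure: 48 h. Format: 96-well plates. Endpoint: linear interpolation; highest concentration if not reached. The concentration for 50% growth inhibition is given as GI50. TGI is the concentration that stops growth completely.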
Key:
Assay in all cases: NCI anticancer screen, dose series, 48 h
A549 NSCLC = test system: A549 NSCLC
UACC-62 melanoma = test system: UACC-62 melanoma
DU-145 prostate = test system: DU-145 prostate
LOX IMVI melanoma = test system: LOX IMVI melanoma
HL-60(TB) leukemia = test system: HL-60(TB) leukemia
OVCAR-3 ovarian = test system: OVCAR-3 ovarian
SF-268 CNS = test system: SF-268 CNS
RPMI-8226 leukemia = test system: RPMI-8226 leukemia
KM12 colon = test system: KM12 colon
NCI-H23 lung = test system: NCI-H23 lung
HCC-2998 colon = test system: HCC-2998 colon
SW-620 colon = test system: SW-620 colon
HOP-62 NSCLC = test system: HOP-62 NSCLC

| Compound | TGI (A549 NSCLC) | TGI (UACC-62 melanoma) [µM] | TGI (DU-145 prostate) | TGI (LOX IMVI melanoma) [µM] | TGI (HL-60(TB) leukemia) [µM] | TGI (OVCAR-3 ovarian) | TGI (SF-268 CNS) | TGI (RPMI-8226 leukemia) [µM] | TGI (KM12 colon) | TGI (NCI-H23 lung) | TGI (HCC-2998 colon) [µM] | TGI (SW-620 colon) [µM] | TGI (HOP-62 NSCLC) | GI50 (DU-145 prostate) [µM] | GI50 (OVCAR-3 ovarian) [µM] | GI50 (SF-268 CNS) [µM] | GI50 (KM12 colon) [µM] | GI50 (NCI-H23 lung) [µM] | GI50 (HOP-62 NSCLC) [µM] | GI50 (HCC-2998 colon) [µM] |
| --- | --- | --- | --- | --- | --- | --- | --- | --- | --- | --- | --- | --- | --- | --- | --- | --- | --- | --- | --- | --- |
| O=c1cc(NNc2cccc(Cl)c2)[nH]c(=O)[nH]1 | > 100 µM | > 100 | > 100 µM | 29.6 | 43.9 | 31.2 µM | > 100 µM | 56.1 | > 100 µM | > 100 µM | > 100 | 33 |  |  |  |  |  |  |  |  |
| CN1CC=C(c2c(N)nc(N)[nH]c2=O)CC1 | > 100 µM | > 100 | > 100 µM |  | > 100 | > 100 µM | > 100 µM | > 100 | > 100 µM | > 100 µM |  | > 100 | > 100 µM |  |  |  |  |  |  |  |
| O=C1CCSCCC(=O)Nc2ccccc2N1 | > 100 µM | > 100 | > 100 µM | > 100 | > 100 | > 100 µM | > 100 µM | > 100 | > 100 µM | > 100 µM |  | > 100 | > 100 µM |  |  |  |  |  |  |  |
| COc1ccc(N2C(=O)C(=O)N(c3ccc(N=Nc4ccccc4)cc3)C2=S)cc1 | 41.2 µM | 31.6 | 34.3 µM | 37.2 | > 100 |  | 44.4 µM | > 100 | 32.9 µM | 34.9 µM | 30.1 | 32.6 | 34.6 µM |  |  |  |  |  |  |  |
| Cc1ccc(S(=O)(=O)C2=C(C(C)C)N=NC2(C)C)cc1 | > 100 µM |  | > 100 µM | > 100 | > 100 | > 100 µM | > 100 µM | 53.8 | > 100 µM | > 100 µM | > 100 | > 100 | > 100 µM |  |  |  |  |  |  |  |
| Cc1ccc2c(c1)CC1(Cc3cccc(C)c3C1=O)C2=O (stereo unspecified) | > 100 µM | > 100 | > 100 µM | > 10 | > 100 | > 100 µM | > 100 µM | > 100 |  | > 100 µM | > 100 | > 100 | > 100 µM |  |  |  |  |  |  |  |
| CC(=O)c1ccc2c(c1)C(=O)c1sc(C(C)=O)cc1C2=O | 9.41 µM and 7.41 µM |  | 2.12 µM and 3 µM | 2.12 | 50 | 2.36 µM and 1.85 µM | 3.85 µM and 3.41 µM | 23.8 | 2.34 µM and 1.48 µM | 2.6 µM and 5.35 µM |  | 50 | 8.16 µM and 7.25 µM | 1.54 | 0.329 | 0.819 | 0.313 | 0.607 | 2.35 | 1.71 |
| COc1ccc2nc(-c3ccccc3)c(=O)[nH]c2c1 | > 100 µM | > 100 | > 100 µM | > 100 | > 100 | > 100 µM | > 100 µM | > 100 |  | > 100 µM | > 100 | > 100 | > 100 µM |  |  |  |  |  |  |  |
| O=c1[nH]nc(Cc2ccc(Cl)cc2)n1/N=C/c1cccs1 | > 100 µM | > 100 | > 100 µM |  | > 100 | > 100 µM | 42.9 µM | > 100 | > 100 µM | > 100 µM | > 100 | > 100 | 55.2 µM |  |  |  |  |  |  |  |
| S=C1NCCN1C(=S)Nc1ccccc1 | > 100 µM | > 100 | > 100 µM | > 100 | > 100 | > 100 µM | > 100 µM |  | > 100 µM | > 100 µM | > 100 | > 100 | > 100 µM |  |  |  |  |  |  |  |
| COc1ccc(/C(Cl)=C(\C#N)c2ccc(OC)c(OC)c2)cc1OC | > 100 µM | > 100 | > 100 µM | > 100 | > 100 | > 100 µM |  | 60.4 |  | > 100 µM | > 100 | > 100 | > 100 µM |  |  |  |  |  |  |  |
| CCOP(=O)(OCC)/C(C#N)=C/c1ccc(-c2cc(C(F)(F)F)cc(C(F)(F)F)c2)o1 | 31.3 µM |  | 29.1 µM | 15.9 | 14.3 | 21.6 µM | 33.3 µM | 23.5 |  | 31.1 µM | 22.2 | 28.2 | 29.1 µM |  |  |  |  |  |  |  |
| CC(NC(=O)Cc1ccccc1)NC(=O)C(C)C(=O)NCc1ccccc1 (stereo unspecified) | > 100 µM | > 100 | > 100 µM |  | > 100 |  | > 100 µM | > 100 | > 100 µM | > 100 µM |  | > 100 |  |  |  |  |  |  |  |  |
| N/C(=N\S(=O)(=O)c1ccc(-c2ncccc2C(F)(F)F)s1)Nc1ccc(Cl)cc1 | 36.7 µM | 23.3 | 36.4 µM | 29.8 | 46.4 | 38.7 µM | 31.5 µM | > 100 | 81.2 µM | 27.5 µM |  | 35.6 | 38.3 µM |  |  |  |  |  |  |  |
| CC(=O)O[C@@]12CO[C@@H]1CC(O)[C@@]1(C)C(=O)[C@H](O)C3=C(C)C(O)C[C@@](O)(C(OC(=O)c4ccccc4)C12)C3(C)C (stereo partly specified) | > 100 µM | 3.7 | > 100 µM | > 100 | > 100 |  | > 100 µM | > 100 | > 89.2 µM | > 41.9 µM | 21.6 | > 100 | > 100 µM |  |  |  |  |  |  |  |
| N[C@H](Cc1ccc2oc3cc(=O)c4ccccc4c-3nc2c1)C(=O)O | > 100 µM | 62 | 51.7 µM | > 100 | > 100 | > 100 µM | > 100 µM | 83.8 | > 100 µM | > 100 µM |  | > 100 | > 100 µM |  |  |  |  |  |  |  |
| Cc1ccc(CSC(N)=Nc2ccccc2)cc1C | > 100 µM | 26.6 | 55.4 µM | 36.2 | 62.9 | 44 µM | 36.7 µM | 75.9 | 39.7 µM | 57 µM |  | > 100 | 49.1 µM |  |  |  |  |  |  |  |
| COc1cc(Nc2nc3cc(C(F)(F)F)ccc3nc2C(=O)O)cc(OC)c1OC | > 100 µM | > 100 | > 100 µM | > 100 | > 100 | > 100 µM | > 100 µM |  | > 100 µM | > 100 µM | > 100 | > 100 | > 100 µM |  |  |  |  |  |  |  |
